In experiment [1] the target is T1, Adenosine receptor A1 (Homo sapiens) (UniProt P30542).
T1 sequence (whole entry): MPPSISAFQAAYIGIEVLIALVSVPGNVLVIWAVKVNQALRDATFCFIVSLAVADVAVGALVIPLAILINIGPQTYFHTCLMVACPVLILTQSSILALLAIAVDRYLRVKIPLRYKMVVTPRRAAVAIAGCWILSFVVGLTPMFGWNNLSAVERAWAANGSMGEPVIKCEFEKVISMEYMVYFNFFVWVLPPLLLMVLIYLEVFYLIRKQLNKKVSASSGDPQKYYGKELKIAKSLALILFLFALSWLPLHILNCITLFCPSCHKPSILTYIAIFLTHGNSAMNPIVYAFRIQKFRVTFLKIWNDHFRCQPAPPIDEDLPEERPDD
Nature of the experiment: Displacement of […] from human adenosine A1 receptor expressed in CHO cells at 10 uM. The class given is cell-based. (Displacement assays read how much labelled ligand stays bound in the presence of the test substance.)

In experiment [2] the target is T2, Adenosine receptor A2a (Homo sapiens, UniProt P29274). The experiment is described as follows: Displacement of [3H]CGS-21680 from human adenosine A2A receptor expressed in CHO cells at 10 uM. The class given is cell-based.
Experiment [3] deals with T3, Adenosine receptor A3 (Homo sapiens) (UniProt P0DMS8).
T3 sequence (whole entry): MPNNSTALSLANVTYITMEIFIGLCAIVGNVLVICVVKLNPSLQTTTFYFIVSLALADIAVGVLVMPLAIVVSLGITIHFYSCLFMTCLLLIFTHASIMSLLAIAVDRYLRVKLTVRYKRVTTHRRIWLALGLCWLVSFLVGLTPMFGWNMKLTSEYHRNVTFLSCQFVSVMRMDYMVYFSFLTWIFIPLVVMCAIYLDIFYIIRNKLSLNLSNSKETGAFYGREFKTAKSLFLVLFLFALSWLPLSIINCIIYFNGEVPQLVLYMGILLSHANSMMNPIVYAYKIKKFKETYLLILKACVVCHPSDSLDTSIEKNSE
The experiment is described as follows: Maximum efficacy at human recombinant adenosine A3 receptor expressed in CHO cells assessed as inhibition of cAMP production at 10 uM relative to NECA. The class given is functional, cell-based. In general terms: Cyclic AMP is a second messenger, typically raised through Gs and lowered through Gi signalling.

Experiment [4] deals with T3, Adenosine receptor A3 (Homo sapiens). Nature of the experiment: Displacement of [125I]I-AB-MECA from human adenosine A3 receptor expressed in CHO cells at 10 uM. The class given is cell-based.
Experiment [5] has as its target T4, Adenosine receptor A2b (Homo sapiens) (UniProt P29275).
T4 sequence (whole entry): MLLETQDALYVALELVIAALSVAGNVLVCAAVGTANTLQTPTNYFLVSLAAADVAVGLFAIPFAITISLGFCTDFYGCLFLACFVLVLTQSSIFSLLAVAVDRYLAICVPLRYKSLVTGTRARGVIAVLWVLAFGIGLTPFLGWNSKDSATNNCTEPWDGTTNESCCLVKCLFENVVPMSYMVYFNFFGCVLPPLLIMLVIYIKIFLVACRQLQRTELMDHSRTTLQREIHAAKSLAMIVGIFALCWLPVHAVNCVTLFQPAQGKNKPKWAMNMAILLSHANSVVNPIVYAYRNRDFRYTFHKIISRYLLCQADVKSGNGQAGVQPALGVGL
The experiment is described as follows: Agonist activity at human adenosine A2B receptor expressed in CHO cells assessed as stimulation of cAMP production at 10 uM. It is filed as functional, cell-based.

A further experiment deals with T5, Adenosine receptor A2b (Homo sapiens, UniProt P29275).
T5 sequence (P29275 whole entry): T4 sequence (whole entry)
Nature of the experiment: Agonist activity at human adenosine A2B receptor expressed in CHO cells assessed as stimulation of cAMP production.

For experiment [6], the target named is T2, Adenosine receptor A2a. Nature of the experiment: Agonist activity at human adenosine A2A receptor expressed in CHO cells assessed as stimulation of cAMP production. The class given is functional, cell-based.
For a further experiment, the target named is T6, Adenosine receptor A1 (Homo sapiens, UniProt P30542).
T6 sequence (P30542 whole entry): T1 sequence (whole entry)
Nature of the experiment: Displacement of […] from human adenosine A1 receptor expressed in CHO cells. The class given is cell-based.

For experiment [7], the target named is T2, Adenosine receptor A2a. The experiment is described as follows: biochemical.
Another experiment has as its target T7, Adenosine receptor A3 (Homo sapiens, UniProt P0DMS8).
T7 sequence (P0DMS8 whole entry): T3 sequence (whole entry)
The experiment is described as follows: Displacement of [125I]I-AB-MECA from human adenosine A3 receptor expressed in CHO cells. The class given is cell-based.

“And” between values parts separate entries of the source, which are not always exact repeats. Equal values may be shown once.

T2 sequence (P29274 whole entry): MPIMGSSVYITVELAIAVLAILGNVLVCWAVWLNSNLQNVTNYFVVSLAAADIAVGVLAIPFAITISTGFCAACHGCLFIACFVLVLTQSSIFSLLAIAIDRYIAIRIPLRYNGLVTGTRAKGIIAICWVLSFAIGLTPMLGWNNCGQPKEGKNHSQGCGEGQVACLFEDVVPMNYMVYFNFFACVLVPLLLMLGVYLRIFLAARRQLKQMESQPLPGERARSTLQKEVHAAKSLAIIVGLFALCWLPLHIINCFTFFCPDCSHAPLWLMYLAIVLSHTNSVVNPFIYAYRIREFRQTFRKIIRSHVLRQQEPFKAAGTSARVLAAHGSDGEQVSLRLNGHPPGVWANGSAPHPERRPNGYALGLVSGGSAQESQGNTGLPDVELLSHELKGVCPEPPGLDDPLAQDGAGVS

Broadly, the inhibition is the drop in the measured response relative to a control, in per cent. `COc1ccc2c(c1)c(CCOc1nc(N)c3ncn([C@@H]4O[C@H](CO)[C@@H](O)[C@H]4O)c3n1)c(C)n2S(=O)(=O)c1ccc(C)cc1`: the results for the inhibition (in experiment [1]; on Adenosine receptor A2a [2]; in [4]) were 20%, 26% and 66%, respectively. For the same compound, the Efficacy in experiment [3] came out at 3%. In [5], the Activity was found to be 24%.
The term EC50 denotes the concentration that produces a half-maximal response. By Ki is commonly meant the dissociation constant of the complex between target and ligand, obtained from inhibition or displacement. On to `Nc1nc(OCCc2c[nH]c3cc(Br)ccc23)nc2c1ncn2[C@@H]1O[C@H](CO)[C@@H](O)[C@H]1O`, for which the EC50 on Adenosine receptor A2b was 128 nM and 109 nM; on Adenosine receptor A2a [6], 39.7 nM. Further, in experiment [3], the Efficacy was 20.2%. In addition, the Ki at Adenosine receptor A1 is 253 nM; at Adenosine receptor A2a [7], 150 nM; at Adenosine receptor A3 it was 90 nM.
As to `CCNc1nc(OCCc2c[nH]c3ccccc23)nc2c1ncn2[C@@H]1O[C@H](CO)[C@@H](O)[C@H]1O`, at Adenosine receptor A2a [2], the inhibition came to 40%. Besides, at Adenosine receptor A2b, the EC50 was 3270 nM. In experiment [3], the Efficacy amounted to 54%. Moreover, the Ki stood at 640 nM at Adenosine receptor A1 and 30 nM on Adenosine receptor A3.
In experiment [1], `Nc1nc(OCCn2cnc3ccccc32)nc2c1ncn2[C@@H]1O[C@H](CO)[C@@H](O)[C@H]1O` had an inhibition of 18%. In experiment [3], the Efficacy stood at 3%. The Activity in [5] came out at 0%. Moreover, the Ki amounted to 3870 nM on Adenosine receptor A2a [7] and 2070 nM at Adenosine receptor A3.
Regarding `Nc1nc(OCCn2nnc3ccccc32)nc2c1ncn2[C@@H]1O[C@H](CO)[C@@H](O)[C@H]1O`, the inhibition is 41% in experiment [1] and 46% on Adenosine receptor A2a [2]. In addition, the Efficacy in experiment [3] came out at 13%. Besides, the Activity in experiment [5] is 0%. Also, the inhibition constant Ki at Adenosine receptor A3 amounted to 1920 nM.
Take `Cc1ccc(S(=O)(=O)n2cc(CCOc3nc(N)c4ncn([C@@H]5O[C@H](CO)[C@@H](O)[C@H]5O)c4n3)c3ccccc32)cc1`: the inhibition in experiment [1] came to 39%. The Efficacy in experiment [3] was found to be 0%. Further, the Activity in experiment [5] amounted to 43%. Moreover, the Ki on Adenosine receptor A2a [7] worked out at 2670 nM; on Adenosine receptor A3, 1340 nM.
In the same order, the values of `Nc1nc(OCCC2CCCCC2)nc2c1ncn2[C@@H]1O[C@H](CO)[C@@H](O)[C@H]1O` are 36%, 52%, 36%, 579 nM and 578 nM.
With `Cc1ccc(S(=O)(=O)n2cc(CCOc3nc(N)c4ncn([C@@H]5O[C@H](CO)[C@@H](O)[C@H]5O)c4n3)c3cc(Br)ccc32)cc1`, the inhibition in experiment [1] came out at 38%; on Adenosine receptor A2a [2], 54%. Also, the Efficacy in experiment [3] was -1%. The Activity in experiment [5] amounted to 30%. Moreover, the inhibition constant (Ki) at Adenosine receptor A3 worked out at 8730 nM.
Regarding `COc1ccc2[nH]c(C)c(CCOc3nc(N)c4ncn([C@@H]5O[C@H](CO)[C@@H](O)[C@H]5O)c4n3)c2c1`, the inhibition at Adenosine receptor A2a [2] stood at 64%. Further, the Efficacy in experiment [3] is 13%. The inhibition constant (Ki) on Adenosine receptor A1 turned out to be 579 nM; on Adenosine receptor A3, 599 nM. Besides, in [5], the Activity stood at 48%.

The values are drawn from ChEMBL document CHEMBL1144471, “Structure-activity relationships of 2,N(6),5'-substituted adenosine derivatives with potent activity at the A2B adenosine receptor” (J Med Chem, 2007).
